# Laboratory results published in paper PMC11106739, “Discovery and Derivatization of Tridecaptin Antibiotics with Altered Host Specificity and Enhanced Bioactivity” (ACS Chemical Biology, 2024).
# Where a SMILES comes first, the peptide text is derived from it. [ ]: non-standard residue; d: D form. The star is where a group is joined. d(aIle) = CC[C@H](C)[C@@H](N)C(=O)O; dDab = NCC[C@@H](N)C(=O)O; Octanoyl = CCCCCCCC(=O)*; Dab = NCC[C@H](N)C(=O)O
# What was measured:
# [1] = system: Gram-positive bacteria (Staphylococcus aureus, Enterococcus faecalis, Enterococcus faecium); assay: MIC, summary over Gram-positive strains; type: cell-based; settings: at a concentration of 64 μg/mL; summary of Table 2
# Experimental: (§1) All minimum inhibitory concentrations (MICs) were determined according to the Clinical and Standards Laboratory Institute (CLSI) guidelines. In brief, agar plates were inoculated from glycerol stocks and incubated overnight at 35 °C. Peptide DMSO stocks were dispensed into 96-well round-bottom plates using a TECAN D300e dispenser. Colistin sulfate (Sigma-Aldrich) was dissolved in water and serially diluted in a cation-adjusted Mueller Hinton broth (10 μL per well). Final concentrations of the test compounds were 0.06 to 64 μg/mL. Inocula were prepared by direct colony suspension in NaCl at 0.5 MacFarland, which was further diluted 200-fold in cation-adjusted Mueller Hinton broth for a target inoculum of 2 × 10^5 colony forming units (CFUs)/mL. 100 μL portion of the prepared inoculum was added to each well of the prepared plates containing the test compounds. Plates were sealed with parafilm and incubated for 20 h at 35 °C. Images of all plates were recorded, and MIC was assessed visually.
# Rabbit red blood cells = assay: Hemolysis assay; type: cell-based; settings: rabbit red blood cells in PBS, 37 °C, 1 h, absorbance at 405 nm, normalization to the Triton X-100 control; 0.25 to 128 μg/mL tested
# Experimental: Peptides, dissolved in DMSO, were dispensed into 96-well round-bottom microplates using a TECAN D300e dispenser and subsequently diluted with 100 μL of PBS. PBS or 2% Triton X-100 was used as negative and positive controls, respectively. Rabbit red blood cells (BioConcept) were diluted in PBS to a final concentration of 2%, and 100 μL was added to each well of the prepared 96-well plates. The final concentration of the test compounds was 0.25 to 128 μg/mL. Plates were incubated at 37 °C for 1 h and afterward subjected to centrifugation at 1000g for 5 min. Then, 30 μL of supernatant was transferred to a new round-bottom plate, and absorbance was measured at 405 nm (TECAN Infinite F200). EC50s were calculated after blank subtraction and normalization to the Triton control.
# P. aeruginosa 1226072 = type: cell-based, Pseudomonas aeruginosa; settings: 1226072, 20 h
# Experimental: as §1
# P. aeruginosa 1218019 = type: cell-based, Pseudomonas aeruginosa; settings: 1218019, 20 h
# Experimental: as §1
# P. aeruginosa PAO1 = type: cell-based, Pseudomonas aeruginosa; settings: PAO1, 20 h
# Experimental: as §1
# K. pneumoniae ATCC 13883 = type: cell-based, Klebsiella pneumoniae; settings: ATCC 13883, 20 h
# Experimental: as §1
# K. pneumoniae 1227947 = type: cell-based, Klebsiella pneumoniae; settings: 1227947, 20 h
# Experimental: as §1
# K. pneumoniae 1228586 = type: cell-based, Klebsiella pneumoniae; settings: 1228586, 20 h
# Experimental: as §1
# E. faecium IHMA 890472 = type: cell-based, Enterococcus faecium; settings: IHMA 890472, 20 h
# Experimental: as §1
# E. faecium ATCC 51559 = type: cell-based, Enterococcus faecium; settings: ATCC 51559, 20 h
# Experimental: as §1
# HepG2 cells = assay: Cytotoxicity determination (CellTiter-Glo); type: cell-based; settings: HepG2, medium without serum, 24 h, normalization to the untreated control, 1 to 128 μg/mL tested
# Experimental: HepG2 cells were grown in EMEM (Sigma) supplemented with 2 mM glutamine and 10% fetal bovine serum (Fisher) at 37 °C, 5% CO2. 20′000 cells per well were seeded into clear tissue culture-treated 96-well plates and incubated for 24 h. Peptides, dissolved in DMSO, were dispensed into 96 deep well plates (TECAN D300e dispenser) and diluted to a final concentration of 1 to 128 μg/mL using fresh medium without serum. The next day, the old media were removed from the cells, and 200 μL of the prepared compound dilutions was added per well. Plates were incubated for another 24 h before assessing the cell viability using the CellTiter-Glo kit (Promega) according to the manufacturer’s protocol. IC50s were calculated after normalization to the untreated control.
# S. aureus ATCC 29213 = type: cell-based, Staphylococcus aureus; settings: ATCC 29213, 20 h
# Experimental: as §1
# S. aureus 1126387 = type: cell-based, Staphylococcus aureus; settings: 1126387, 20 h
# Experimental: as §1
# S. aureus UAMS-1625 = type: cell-based, Staphylococcus aureus; settings: S. aureus UAMS-1625 (BV18); CLSI broth dilution, cation-adjusted Mueller Hinton broth, 20 h, 35 °C, read visually
# Experimental: as §1
# [2] = system: Gram-negative ESKAPE pathogens; type: cell-based; settings: 20 h
# Experimental: as §1
# ATCC 25922 = type: cell-based, Enterococcus faecalis; settings: ATCC 25922, 20 h
# Experimental: as §1
# E. faecalis ATCC 29212 = type: cell-based, Enterococcus faecalis; settings: ATCC 29212, 20 h
# Experimental: as §1
# E. coli ATCC 25922 = type: cell-based, Escherichia coli; settings: ATCC 25922, 20 h
# Experimental: as §1
# E. coli 1220120 = type: cell-based, Escherichia coli; settings: 1220120, 20 h
# Experimental: as §1
# E. coli 1214245 = type: cell-based, Escherichia coli; settings: 1214245, 20 h
# Experimental: as §1
# A. baumannii HUMC1 = type: cell-based, Acinetobacter baumannii; settings: HUMC1, 20 h
# Experimental: as §1
# A. baumannii IHMA 777621 = type: cell-based, Acinetobacter baumannii; settings: IHMA 777621, 20 h
# Experimental: as §1
# A. baumannii ATCC 17978 = type: cell-based, Acinetobacter baumannii; settings: ATCC 17978, 20 h
# Experimental: as §1
SMILES,Hemolysis EC50 (Rabbit red blood cells),MIC (P. aeruginosa 1226072),MIC (P. aeruginosa 1218019),MIC (P. aeruginosa PAO1),MIC (K. pneumoniae ATCC 13883),MIC (K. pneumoniae 1227947),MIC (K. pneumoniae 1228586),MIC (E. faecium IHMA 890472),MIC (E. faecium ATCC 51559),IC50 on HepG2 w/o FCS (HepG2 cells),MIC (S. aureus ATCC 29213),MIC (S. aureus 1126387),MIC (S. aureus UAMS-1625),MIC (ATCC 25922),MIC (E. faecalis ATCC 29212),MIC (E. coli ATCC 25922),MIC (E. coli 1220120),MIC (E. coli 1214245),MIC (A. baumannii HUMC1),MIC (A. baumannii IHMA 777621),also measured
CCCCCCCC(=O)N[C@@H](C(=O)N[C@H](CCN)C(=O)NCC(=O)N[C@H](CO)C(=O)N[C@H](Cc1c[nH]c2ccccc12)C(=O)N[C@@H](CO)C(=O)N[C@@H](CCN)C(=O)N[C@H](CCN)C(=O)N[C@@H](CO)C(=O)N[C@@H](CCC(=O)O)C(=O)N[C@H](C(=O)N[C@@H](C(=O)N[C@@H](C)C(=O)O)[C@@H](C)CC)C(C)C)C(C)C [Oct-Ser9] (Octanoyl-[dV][dDab]G[dS][dW]S[Dab][dDab]SEV[d(aIle)]A-OH),>128 µg/mL,32 µg/mL,32 µg/mL,>64 µg/mL,64 µg/mL,>64 µg/mL,8 µg/mL,>64 µg/mL,>64 µg/mL,>128 µg/mL,>64 µg/mL,>64 µg/mL,>64 µg/mL,>64 µg/mL,>64 µg/mL,32 µg/mL,32 µg/mL,64 µg/mL,>64 µg/mL,>64 µg/mL,"antibacterial activity against Gram-positive bacteria [1]: no antibacterial activity; MICs, range over Gram-negative pathogens [2]: 8 to 64 µg/mL; MIC (A. baumannii ATCC 17978): >64 µg/mL"
CCCCCCCC(=O)N[C@@H](C(=O)N[C@H](CCN)C(=O)NCC(=O)N[C@H](CO)C(=O)N[C@H](Cc1c[nH]c2ccccc12)C(=O)N[C@@H](CO)C(=O)N[C@@H](CCN)C(=O)N[C@H](CCN)C(=O)NCC(=O)N[C@@H](CCC(=O)O)C(=O)N[C@H](C(=O)N[C@@H](C(=O)N[C@@H](C)C(=O)O)[C@@H](C)CC)C(C)C)C(C)C [Oct-Gly9] (Octanoyl-[dV][dDab]G[dS][dW]S[Dab][dDab]GEV[d(aIle)]A-OH),>128 µg/mL,32 µg/mL,>64 µg/mL,64 µg/mL,16 µg/mL,32 µg/mL,8 µg/mL,>64 µg/mL,>64 µg/mL,>128 µg/mL,>64 µg/mL,>64 µg/mL,>64 µg/mL,>64 µg/mL,>64 µg/mL,16 µg/mL,16 µg/mL,16 µg/mL,>64 µg/mL,>64 µg/mL,"antibacterial activity against Gram-positive bacteria [1]: no antibacterial activity; MICs, range over Gram-negative pathogens [2]: 8 to 64 µg/mL; MIC (A. baumannii ATCC 17978): >64 µg/mL"
CCCCCCCC(=O)N[C@@H](C(=O)N[C@H](CCN)C(=O)NCC(=O)N[C@H](CO)C(=O)N[C@H](Cc1c[nH]c2ccccc12)C(=O)N[C@@H](CO)C(=O)N[C@@H](CCN)C(=O)N[C@H](CCN)C(=O)N[C@H](C(=O)N[C@@H](CCC(=O)O)C(=O)N[C@H](C(=O)N[C@@H](C(=O)N[C@@H](C)C(=O)O)[C@@H](C)CC)C(C)C)C(C)C)C(C)C [Oct-Val9] (Octanoyl-[dV][dDab]G[dS][dW]S[Dab][dDab]VEV[d(aIle)]A-OH),>128 µg/mL,16 µg/mL,16 µg/mL,64 µg/mL,2 µg/mL,8 µg/mL,8 µg/mL,>64 µg/mL,64 µg/mL,>128 µg/mL,>64 µg/mL,>64 µg/mL,>64 µg/mL,>64 µg/mL,64 µg/mL,4 µg/mL,4 µg/mL,4 µg/mL,32 µg/mL,32 µg/mL,MIC (A. baumannii ATCC 17978): 32 µg/mL
CCCCCCCC(=O)N[C@@H](C(=O)N[C@H](CCN)C(=O)NCC(=O)N[C@H](CO)C(=O)N[C@H](Cc1c[nH]c2ccccc12)C(=O)N[C@@H](CO)C(=O)N[C@@H](CCN)C(=O)N[C@H](CCN)C(=O)N[C@@H](CCC(=O)O)C(=O)N[C@@H](CCC(=O)O)C(=O)N[C@H](C(=O)N[C@@H](C(=O)N[C@@H](C)C(=O)O)[C@@H](C)CC)C(C)C)C(C)C [Oct-Glu9] (Octanoyl-[dV][dDab]G[dS][dW]S[Dab][dDab]EEV[d(aIle)]A-OH),>128 µg/mL,>64 µg/mL,>64 µg/mL,>64 µg/mL,>64 µg/mL,>64 µg/mL,>64 µg/mL,>64 µg/mL,>64 µg/mL,>128 µg/mL,>64 µg/mL,>64 µg/mL,>64 µg/mL,>64 µg/mL,>64 µg/mL,>64 µg/mL,64 µg/mL,>64 µg/mL,>64 µg/mL,>64 µg/mL,"antibacterial activity against Gram-positive bacteria [1]: no antibacterial activity; MICs, range over Gram-negative pathogens [2]: 8 to 64 µg/mL; MIC (A. baumannii ATCC 17978): >64 µg/mL"
